From patent publication US20240174744A1, “METHODS OF TREATMENT USING PROTEIN BINDERS TO IRHOM2 EPITOPES” (SCIRHOM GMBH, priority 2021, published 2024)

Tested on: LPS-induced release of TNFα from human macrophages from healthy donors
Assay: ELISA-based TNFα release assay, human macrophages from healthy donors
Assay type: cell-based
Settings: Macrophage, recombinant murine antibodies, final concentration of 10 µg/ml, Batimastat 10 μM, LPS 5 ng/ml, 2 hours
Method: Complementary to Example 32 described above, ELISA-based TNFα release assays were performed to test the inhibitory effects of the antibodies on LPS-induced release of endogenous TNFα from human macrophages from healthy donors.
To obtain human macrophages, peripheral blood mononuclear cells (PBMCs) from 4 healthy donors were used. Cells from 5 ml human blood were resuspended in 20 ml of DMEM medium (Corning, USA) supplemented with 10% FCS (Atlanta Biological, USA) and Penicillin/Streptomycin (Corning, USA) (DMEM/FCS) and were then incubated on two 10 cm petri dishes (Thermo Fisher, USA) at 37° C., 5% CO2 for 3h. Non-adherent cells were subsequently removed and 6 ml of DMEM/FCS supplemented with 10 ng/ml human MCSF (Peprotech, USA) (DMEM/FCS/MCSF) was added per plate. Both plates were incubated at 37° C., 5% CO2 for 2 days, then 2 ml of DMEM/FCS/MCSF was added to each plate on day 2 and 4. On day 5, all medium was removed and attached cells were washed once with 5 ml PBS (Corning, USA). 2 ml of Accutase (Promocell, USA) solution was added to each plate and incubated at 37° C. for 15 min. 10 ml of DMEM/FCS was added to each plate and detached cells were collected in a 15 ml Falcon tube. Cells were subsequently pelleted in a tabletop centrifuge (Eppendorf, USA) at 1,500 rpm for 5 min. […] 10 μl from this cell suspension was manually counted in a hemocytometer (Thermo Fisher, USA). […]

Compound: CNC(=O)[C@H](Cc1ccccc1)NC(=O)[C@H](CC(C)C)[C@H](CSc1cccs1)C(=O)NO [Batimastat]
- inhibition at 10 µM: 68.3%
